Values joined by “and” are separate entries in the source; they are usually repeats but may differ in a detail not shown here. Identical values can stand only once.
Tests used:
[1] = Cleavage of the 3′-O-nitro group with cysteamine-NaOH; format: physicochemical; settings: aqueous cysteamine-NaOH (pH 9.0), 1.0 to 2.0 M cysteamine, after 5 minutes at 50° C.
Protocol: 10 to 100 nmol of 3′-O-nitro-thymidine 2 were dissolved in an aqueous solution of cysteamine-NaOH (pH 9.0) to obtain a final nucleoside concentration of 0.17 to 1.7 nmol/μL and a final cysteamine concentration of 1.0 to 2.0 M. Reaction control was performed via analytical reversed-phase chromatography using 0.1 M triethylammonium acetate (pH 7.0)/acetonitrile gradient as eluent.

[2] = molecular target: T1, Therminator II DNA polymerase (Thermococcus sp., UniProt Q56366, A485L/D141A/E143A/Y409V); format: biochemical
T1 construct: purchased New England Biolabs
T1 sequence (Q56366 1-775 D141A/E143A/Y409V/A485L): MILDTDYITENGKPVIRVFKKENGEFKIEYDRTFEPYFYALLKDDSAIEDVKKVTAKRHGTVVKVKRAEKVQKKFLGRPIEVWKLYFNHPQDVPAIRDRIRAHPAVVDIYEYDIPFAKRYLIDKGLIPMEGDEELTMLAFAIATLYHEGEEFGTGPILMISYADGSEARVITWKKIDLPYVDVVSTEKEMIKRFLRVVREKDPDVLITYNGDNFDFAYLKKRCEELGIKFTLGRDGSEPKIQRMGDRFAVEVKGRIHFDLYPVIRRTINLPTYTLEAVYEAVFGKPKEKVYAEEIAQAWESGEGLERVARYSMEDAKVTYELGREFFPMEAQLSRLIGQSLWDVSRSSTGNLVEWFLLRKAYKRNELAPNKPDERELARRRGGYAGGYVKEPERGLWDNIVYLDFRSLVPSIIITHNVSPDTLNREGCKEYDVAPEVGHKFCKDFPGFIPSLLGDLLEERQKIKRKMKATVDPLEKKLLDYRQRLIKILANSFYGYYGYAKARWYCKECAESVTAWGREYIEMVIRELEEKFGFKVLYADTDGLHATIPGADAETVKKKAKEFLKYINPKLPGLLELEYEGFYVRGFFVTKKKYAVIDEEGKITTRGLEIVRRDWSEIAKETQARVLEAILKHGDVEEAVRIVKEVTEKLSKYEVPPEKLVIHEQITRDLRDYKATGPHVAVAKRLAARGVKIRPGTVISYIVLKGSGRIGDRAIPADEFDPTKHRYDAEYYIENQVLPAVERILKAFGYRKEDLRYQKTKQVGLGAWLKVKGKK

| cleavage of the nitrate group [1] | Compound | acceptance as substrate by Therminator II DNA polymerase [2] | incorporation by Therminator II DNA polymerase [2] | primer + dNTP MWfound [2] |
| --- | --- | --- | --- | --- |
| Quantitative cleavage | Cc1cn([C@H]2C[C@H](O[N+](=O)[O-])[C@@H](CO)O2)c(=O)[nH]c1=O [Compound 2, 3′-O-Nitro-β-D-thymidine] | – | – | – |
| – | Cc1cn([C@H]2C[C@H](O[N+](=O)[O-])[C@@H](COP(=O)([O-])OP(=O)([O-])OP(=O)([O-])[O-])O2)c(=O)[nH]c1=O.[Na+].[Na+].[Na+].[Na+] [Compound 3, 3′-O-Nitro-β-D-thymidine 5′-triphosphate, tetrasodium salt] | accepted as substrates | incorporated efficiently | 5108.2 DA and 5108.1 DA and 5108.3 DA and 5108.4 DA |
